Reference: US9943528B2 (MAPREG, priority 2016, dated 2018)
Entries after “also recorded” stand apart in the source; their conditions may differ.

Tests used:
MAP2 = test: Binding (affinity) by displacement of PREG-3H
[1] = test system: purified tubulin and MAP2; test: Activity: increase in optical density at 345 nm of purified tubulin and MAP2 with GTP; type: biochemical; settings: 37° C.
Protocol: Activity is measured by the increase in optical density at 345 nm of a mixture of purified tubulin and MAP2, incubated at 37° C. in the presence of GTP.

PC12 cells = test: Stimulation of neuritic sprouting on PC12 cells differentiated with NGF; type: cell-based; settings: NGF 10 ng/ml, steroid 30 μM, 3 days, relative to PREG
Protocol: Stimulation of neuritic sprouting is conducted on PC12 cells differentiated in the presence of NGF (10 ng/ml) and the steroid being tested (30 μM) for 3 days. For each condition, the average length of the longest 200 neurites in each cell is measured simultaneously for 3 cultures.

[2] = test system: Wistar Kyoto rat strain (WKY); settings: WKY rats, literature; cited from earlier work
WKY rats = settings: cited from earlier work; for resistance of WKY rats to the drug: fluoxetine acute or chronic, citalopram acute, paroxetine sub-chronic (12 days)
Wistar Kyoto (WKY) rats = test: Open-field arena (OFA) in WKY rats, acute treatment; type: in vivo, rat; settings: fluoxetine 10 mg/kg i.p., ketamine 30 mg/kg i.p.; for number of entries in the central square of OFA, change vs WKY receiving only vehicle: FIG. 5B; for time spent in the center of open-field vs WKY receiving vehicle: FIG. 5C
Protocol: After a 6-day period of acclimatization, all experimental groups received daily successive subcutaneous (250 μl per rat) and intraperitoneal (1 ml/kg) injections. WI rats received injection of vehicle (sesame oil+saline) while WKY rats were randomly assigned to […] experimental groups, as follow: KWY rats receiving only vehicle (sesame oil+saline) and WKY rats treated with MAP4343 (10 mg/kg, s.c.; rats received in parallel i.p. injections of saline), fluoxetine (10 mg/kg i.p., rats received in parallel s.c. injections of sesame oil) or ketamine (30 mg/kg, i.p.; rats received in parallel s.c. injections of sesame oil) (see FIG. 3).
After, a 6-day period of acclimatization, the acute phase of treatment started for 4 days during behavioral tests were performed (FIG. 3). All animals were injected 1 h 30 before the starting of behavioral test.
The animals were individually placed in the open field arena (OFA) (70×100×70 cm), with a central square (35×50 cm), located in a 50 lux illuminated room and videotaped during 3 min using a computerized system (VideoTrack V2.5, ViewPoint, Lyon, France).
OFA allows firstly the evaluation of total locomotor activity (LMA) thereby measuring the total distance travelled in the arena (in cm). Secondly, measurements of the activity in the center of the arena like (i) the number of entries in the center of arena and (ii) the total time spent in the center of arena (in sec) provide cues of anxiety-like behavior (Prut and Belzung, 2003). All these behavioral parameters were instantaneously measured automatically with the VideoTrack V2.5 software from the videos.

[3] = Body weight of WKY rats under acute treatment; type: in vivo, rat; settings: fluoxetine 10 mg/kg
[4] = target: T1, human progesterone receptor (PR) (Homo sapiens, UniProt P06401); test: Test of progesterone receptor agonist activity (MMTV-luciferase transactivation in transfected HEK293T cells); type: cell-based; settings: 24 hours, increasing amounts, FIG. 1
T1 construct: expressed in transfected cells; host or cells: HEK293T
T1 sequence (P06401 1-933): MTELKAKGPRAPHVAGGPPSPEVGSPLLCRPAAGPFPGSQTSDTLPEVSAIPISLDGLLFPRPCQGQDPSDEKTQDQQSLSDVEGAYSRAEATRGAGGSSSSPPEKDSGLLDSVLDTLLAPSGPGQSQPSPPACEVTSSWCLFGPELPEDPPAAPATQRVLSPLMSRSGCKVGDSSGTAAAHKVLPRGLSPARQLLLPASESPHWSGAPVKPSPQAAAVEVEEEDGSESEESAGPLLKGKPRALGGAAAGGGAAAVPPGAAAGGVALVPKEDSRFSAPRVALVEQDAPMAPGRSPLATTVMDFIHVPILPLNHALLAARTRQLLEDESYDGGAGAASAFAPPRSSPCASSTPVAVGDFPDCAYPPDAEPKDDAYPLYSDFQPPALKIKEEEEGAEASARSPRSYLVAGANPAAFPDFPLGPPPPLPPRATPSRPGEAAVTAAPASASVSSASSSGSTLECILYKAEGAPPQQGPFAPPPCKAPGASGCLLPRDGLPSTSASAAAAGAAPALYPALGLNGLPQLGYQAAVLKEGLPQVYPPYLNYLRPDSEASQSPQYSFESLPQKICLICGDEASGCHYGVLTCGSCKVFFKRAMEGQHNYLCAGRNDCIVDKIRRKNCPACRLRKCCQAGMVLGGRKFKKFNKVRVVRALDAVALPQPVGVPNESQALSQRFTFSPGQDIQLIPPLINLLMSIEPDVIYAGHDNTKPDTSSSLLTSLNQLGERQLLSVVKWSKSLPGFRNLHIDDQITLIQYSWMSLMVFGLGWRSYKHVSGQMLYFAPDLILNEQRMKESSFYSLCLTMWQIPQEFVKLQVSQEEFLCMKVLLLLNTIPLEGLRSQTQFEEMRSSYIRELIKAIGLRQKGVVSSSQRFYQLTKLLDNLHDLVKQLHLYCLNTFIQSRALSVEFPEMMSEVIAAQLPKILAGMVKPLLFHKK
Protocol: The main experimental setting used is the following: HEK293T cells were transiently transfected, using calcium phosphate precipitation technology, with expression vectors pSG5hPR (which permits expression of human progesterone receptor (PR)), pFC31-luc (contains the luciferase gene under the control of the MMTV promoter, which is in turn activated by binding of a progestin to progesterone receptor) and pcbetagal (which permits expression of betagalactosidase), and cultured during 24 hours with increasing amounts of various compositions:
Test of Progesterone Receptor Agonist Activity: Transfected Cells were Cultured with Increasing Amounts of Progesterone or 3-Methoxy-Pregnenolone

Row | Compound | Affinity (MAP2) | Activity [1] | also measured
1 | CC(=O)[C@H]1CC[C@H]2[C@@H]3CC=C4C[C@@H](O)CC[C@]4(C)[C@H]3CC[C@]12C [Pregnenolone (PREG), 3β-hydroxypregn-5α-en-20α-one, reference compound] | 100% of PREG | 100% of PREG | Neuritic sprouting (PC12 cells): ++ (equal to)
2 | CC(=O)[C@H]1[C@@H](C)C[C@H]2[C@@H]3CC=C4C[C@@H](O)CC[C@]4(C)[C@H]3CC[C@@]21C [PREG-16β-methyl] | 63% of PREG | 67% of PREG | –
3 | CC(=O)[C@H]1[C@H](C)C[C@H]2[C@@H]3CC=C4C[C@@H](O)CC[C@]4(C)[C@H]3CC[C@@]21C [PREG-16α-methyl] | 80% of PREG | 70% of PREG | Neuritic sprouting (PC12 cells): ++ (equal to)
4 | CC(=O)[C@H]1[C@H](C)C[C@H]2[C@@H]3CC[C@H]4C[C@@H](O)CC[C@]4(C)[C@H]3CC[C@@]21C [3β-hydroxy-5α-pregnane-20-one-16α-methyl] | 57% of PREG | 53% of PREG | –
5 | CNCCCN1c2ccccc2CCc2ccccc21 [desipramine] | – | – | immobility / depressive-like behavior in FST [2]: efficient to reverse depressive-like behavior
6 | CO[C@H]1CC[C@@]2(C)C(=CC[C@H]3C4=CC[C@H](C(C)=O)[C@@]4(C)CC[C@@H]32)C1 [3β-methoxy-pregna-5,14-diene-20-one] | 102% of PREG | 50% of PREG | –
7 | Fc1ccc([C@@H]2CCNC[C@H]2COc2ccc3c(c2)OCO3)cc1 [paroxetine] | – | – | resistance of WKY rats to the drug (WKY rats): resistant
8 | CO[C@H]1CC[C@@]2(C)C(=CC[C@@H]3[C@@H]2CC[C@@]2(C)[C@H]3CC[C@@]2(C(C)=O)C(Cl)Cl)C1 [3β-methoxy-pregna-5-ene-20-one-17α-dichloromethyl] | 53% of PREG | 113% of PREG | –
9 | CO[C@H]1CC[C@@]2(C)[C@@H](CC[C@@H]3[C@@H]2CC[C@]2(C)[C@@H](C(C)=O)CC[C@@H]32)C1 [3β-methoxy-5α-pregnane-20-one] | 87% of PREG | 10% of PREG | –
10 | NNCCc1ccccc1 [phenelzine] | – | – | immobility / depressive-like behavior in FST [2]: subacute efficacy to reduce immobility
11 | CNC1(c2ccccc2Cl)CCCCC1=O (stereo not drawn) [ketamine] | – | – | locomotor activity (total distance travelled in the open-field arena), change vs WKY receiving vehicle (Wistar Kyoto (WKY) rats; MAP4343 10 mg/kg s.c., 3 min, FIG. 5A): no significant change of locomotor activity; number of entries in the central square of OFA, change vs WKY receiving only vehicle (Wistar Kyoto (WKY) rats; MAP4343 10 mg/kg s.c.): failed to significantly modify the low entries in the center; time spent in the center of open-field vs WKY receiving vehicle (Wistar Kyoto (WKY) rats; MAP4343 10 mg/kg s.c.): did not induce any significant change of this measure; locomotor activity (total distance travelled in the open-field arena), change vs MAP4343-treated WKY (Wistar Kyoto (WKY) rats; FIG. 5A): no significant change of locomotor activity; immobility / depressive-like behavior in FST [2]: elicited antidepressant-like effect; also recorded: decrease immobility
12 | CC(=O)[C@@]12C[C@@H]1C[C@H]1[C@@H]3CC=C4C[C@@H](O)CC[C@]4(C)[C@H]3CC[C@@]12C [PREG-16α,17α-methylene] | 62% of PREG | 49% of PREG | Neuritic sprouting (PC12 cells): + (lower than)
13 | CNCCC(Oc1ccc(C(F)(F)F)cc1)c1ccccc1 (stereo not drawn) [fluoxetine] | – | – | number of entries in the central square of OFA, change vs WKY receiving only vehicle (Wistar Kyoto (WKY) rats; MAP4343 10 mg/kg s.c.): failed to significantly modify the low entries in the center; time spent in the center of open-field vs WKY receiving vehicle (Wistar Kyoto (WKY) rats; MAP4343 10 mg/kg s.c.): did not induce any significant change of this measure; locomotor activity (total distance travelled in the open-field arena), change vs MAP4343-treated WKY (Wistar Kyoto (WKY) rats; FIG. 5A): −52%; body weight [3]: a reduced body weight; efficacy in OFA, EPM and FST (WKY rats; WKY rats, acute or chronic administration): no efficacy; resistance of WKY rats to the drug (WKY rats): resistant
14 | CO[C@H]1CC[C@@]2(C)C(CCC3C2CC[C@@]2(C)C3CC[C@@H]2[C@@H](C)O)C1 (stereo partly drawn) [3β-methoxy-5α-pregnane-20β-ol] | 65% of PREG | 65% of PREG | –
15 | PREG-16α,17α-epoxy | 41% of PREG | 54% of PREG | Neuritic sprouting (PC12 cells): + (lower than)
16 | CC(=O)OC(C)C1CCC2C3CC=C4CC(O)CCC4(C)C3CCC12C (stereo not drawn) [Pregna-5-ene-3β, 20β-dio1-20-acetate] | 60% of PREG | 108% of PREG | Neuritic sprouting (PC12 cells): ++ (equal to)
17 | CC(=O)[C@H]1CC[C@H]2[C@@H]3CCC4=CC(=O)CC[C@]4(C)[C@H]3CC[C@]12C [progesterone, reference compound] | – | – | progesterone receptor agonist activity (transactivation, expression of luciferase) [4]: permits a transactivation activity
